Data published in US9018216B2, “Solid forms of (R)-2-(5-(2-(3-ethylureido)-6-fluoro-7-(tetrahydrofuran-2-yl)-1H-benzo[d]imidazol-5-yl)pyrimidin-2-yl)propan-2-yl dihydrogen phosphate and salts thereof” (priority 2012, dated 2015).
pKi: −log10 of the molar value. “And” between values parts separate entries of the source, which are not always exact repeats. Equal entries are not always repeated. Where two headings read alike, the source gives them in different places.

Legend:
[1] = Stability of the solid forms (net increase in total impurities at 40 C/30% RH); format: physicochemical
Escherichia coli AG100 = assay: Gyrase MIC determination against Gram negatives using microdilution broth method (Protocol 2); format: cell-based
Procedure: (§1) Compounds of this invention were tested for antimicrobial activity by susceptibility testing in liquid media. […] The specific protocols used were as follows:
(§2) Protocol 2: Gyrase MIC Determination of Compounds Against Gram Negatives Using Microdilution Broth Method
(§3) Strains (MHII Media for all; Broth and Agar): • 1. Escherichia coli AG100 WT • 2. Escherichia coli AG100 tolC • 3. […] Haemophilus influenzae Rd0894 (AcrA−)
(§4) Inoculum Prep: • 1. Using the BBL Prompt kit, picked 5 big or 10 small, well separated colonies from cultures grown on agar medium and inoculated 1 mL sterile saline that came with the kit. • 2. Vortexed the wells for ˜30 s to give a suspension of ˜10^8 cells/mL. Actual density could be confirmed by plating out dilutions of this suspension. • 3. Diluted the suspension 1/100 by transferring 0.15 mL of cells into 15 mL (˜10^6 cells/mL) sterile broth (see below) for each plate of compounds tested, swirled to mix. […] Used 50 μl cells (˜5×10^4 cells) to inoculate each microtiter well containing 50 μl of the drug diluted in broth (see below).
(§5) Drug Dilutions, Inoculation, MIC Determination: • 1. […] Diluted drug/compound stocks to 200× desired final concentration in 50 μL DMSO. If starting concentration of MICs was 8 μg/mL final concentration, then required 6.25 μL of stock+43.75 μL DMSO. Each 200× stock was placed in a separate row of column 1 of a new 96 well microtiter plate. • 3. Added 25 μL of DMSO to columns 2-12 of all rows of the microtiter plate containing 200× compound stocks and serially diluted 25 μL from column 1 through column 11, changed tips after each column. i.e. 25 μL compound+25 μL DMSO=2× dilution. Left “no compound” DMSO well at the end of the series for control. • 4. For each strain tested, prepared two microtiter plates with 50 μL of MHII broth using a Matrix pipettor. • 5. Transferred 0.5 μL of each dilution (w/Matrix auto-pipettor) to 50 μL of medium/microtiter well prior to the addition of 50 μl of cells. The usual starting concentration of compound was 8 μg/mL after the 1/200 dilution into medium+cells−compound concentrations decreased in 2× steps across the rows of a microtiter plate. All MICs were done in duplicate. • 6. All wells were inoculated with 50 μl of diluted cell suspension (see above) to a final volume of 100 μl. • 7. After inoculum was added, each well was mixed thoroughly with a manual multichannel pipettor; same tips were used going from low to high concentration of drug in the same microtiter plate. • 8. Plates were incubated at 37° C. for at least 18 hours. • 9.
(§6) Examined the test plates after the correct incubation time and read the MIC endpoint at the concentration where a marked reduction occurred in the appearance of growth on the test plate as compared to that of growth on the positive control plates.

Haemophilus influenzae = assay: as above; format: cell-based; details: Haemophilus influenzae Rd0894 (AcrA-)
Procedure: as §1, §2, §3, §4, §5, §6

S. aureus DNA Topo IV = S. aureus DNA Topo IV (Staphylococcus aureus, UniProt P0C1S7); assay: DNA Topo IV ATPase assay; format: biochemical; details: solid forms, Table 27c
Procedure: The conversion of ATP to ADP by S. aureus TopoIV enzyme was coupled to the conversion of NADH to NAD+, and the progress of the reaction was measured by the change in absorbance at 340 nm. TopoIV (64 nM) was incubated with the selected compound (3% DMSO final) in buffer for 10 minutes at 30° C. The buffer consisted of 100 mM Tris 7.5, 1.5 mM MgCl2, 200 mM K·Glutamate, 2.5 mM phosphoenol pyruvate, 0.2 mM NADH, 1 mM DTT, 5 ng/mL linearized DNA, 50 ng/mL BSA, 30 ng/mL pyruvate kinase, and 10 ng/mL lactate dehyrodgenase (LDH). The reaction was initiated with ATP, and rates were monitored continuously for 20 minutes at 30° C. on a Molecular Devices SpectraMAX plate reader. The inhibition constant, Ki, and the IC50 were determined from plots of rate vs. concentration of selected compound fit to the Morrison Equation for tight binding inhibitors.

[2] = system: Enterococcus faecium ATCC 49624; assay: Gyrase MIC determination using microdilution broth method (Protocol 1); format: cell-based
S. aureus DNA gyrase = S. aureus DNA gyrase (Staphylococcus aureus, UniProt P0A0K8); assay: DNA gyrase ATPase assay; details: solid forms, Table 27a
[3] = Vapor sorption (DVS) of free forms; format: physicochemical
Procedure: In one embodiment, the hydrated Free Form A may be converted to anhydrous Free Form B of the compound by equilibrating in a low humidity environment. […] Upon dehydrating hydrated Free Form A, a corresponding anhydrous Free Form B may be obtained. […] Whether the hydrated Free Form A could absorb additional water is not known at this time. […] At 25° C., the critical humidity for conversion is around 40% (see vapor sorption experiment). […] Humidity was then changed by 5% increments until 95% RH was achieved using the same limiting conditions. The reverse steps were executed on the desorption side from 95% down to 5% RH, while always maintaining 25° C. temperature.

[4] = system: Staphylococcus aureus ATCC 29213; assay: microbe, parasite or virus in culture; format: cell-based; details: Protocol 1
E. coli DNA Topo IV = assay: E. coli enzyme ATPase inhibition assay (Table 27b); format: biochemical; details: E. coli DNA Topo IV (table title), solid forms
[5] = Monkey oral pharmacokinetic study; format: in vivo, cynomolgus monkeys; details: 0.5% MC, plasma analyte
From the text: (§7) Plasma concentration vs. time data was subjected to noncompartmental pharmacokinetic (PK) analysis.

[6] = Monkey IV pharmacokinetic study; details: Compound W IV 5 mg/kg, D5W, plasma analyte
[7] = Rat IV pharmacokinetic study; details: D5W, plasma analyte
[8] = system: M. tuberculosis ATCC 35801 (strain Erdman); assay: Mouse M. tuberculosis (Erdman) 28 day lung infection model; format: in vivo, M. tuberculosis; host Balb/c mice; details: 28 days; for Log Reduction vs. Early Control / Median Lung Burden / Log Reduction vs. Late Control: Table 23b
[9] = Pharmacokinetic studies: in vivo conversion of prodrug; details: in at least rats, dogs and monkeys
Procedure: The pharmacokinetic parameters of selected compounds of this invention were determined in the experiments described below. General analytic procedures and specific experimental protocols were employed as follows: […]

[10] = Rat oral pharmacokinetic study; format: in vivo, Sprague Dawley rats; details: plasma analyte; for AUC: male, Sprague Dawley, plasma, po, read-out: AUCextrap
From the text: as §7

[11] = system: Enterococcus faecalis ATCC 29212; assay: Gyrase MIC determination using microdilution broth method (Protocol 1); format: cell-based; details: Enterococcus faecalis ATCC 29212, with 3% Laked Horse Blood
[12] = Enterococcus faecium ATCC 49624 with 3% Laked Horse Blood
[13] = Staphylococcus aureus ATCC 29213
[14] = Staphylococcus aureus ATCC 29213 with 50% Mouse Serum

## CCNC(=O)Nc1nc2cc(-c3cnc(C(C)(C)OP(=O)(O)O)nc3)c(F)c([C@H]3CCCO3)c2[nH]1 [Form B, (R)-2-(5-(2-(3-ethylureido)-6-fluoro-7-(tetrahydrofuran-2-yl)-1H-benzo[d]imidazol-5-yl)pyrimidin-2-yl)propan-2-yl dihydrogen phosphate]
[1]; 17 days, listed as B
  Net % increase in total impurities: 0.16%
Escherichia coli AG100; Escherichia coli AG100 WT
  MIC: 2 µg/mL
Escherichia coli AG100; Escherichia coli AG100 tolC
  MIC: 2 µg/mL
Haemophilus influenzae
  MIC: 0.25 µg/mL
S. aureus DNA Topo IV
  pKi: 8.00
[2]; [12]
  MIC: 4 µg/mL
S. aureus DNA gyrase
  pKi: > 7.60
[3]; At 25° C.
  critical humidity for conversion of Free Form B back to Free Form A: around 40%
[4]; [13]
  MIC: 4 µg/mL
[4]; [14]
  MIC: 1 µg/mL
E. coli DNA Topo IV
  pKi: > 8.22

## CCNC(=O)Nc1nc2cc(-c3cnc(C(C)(C)OP(=O)([O-])[O-])nc3)c(F)c([C@H]3CCCO3)c2[nH]1.[Na+].[Na+] [Compound W, disodium (R)-2-(5-(2-(3-ethylureido)-6-fluoro-7-(tetrahydrofuran-2-yl)-1H-benzo[d]imidazol-5-yl)pyrimidin-2-yl)propan-2-yl phosphate]
[5]; Compound W PO 100 mg/kg
  AUCextrap: 437 ng·h/mL
  t1/2: 5.31 h
[5]; Compound W PO 300 mg/kg
  t1/2: 13.15 h
[6]
  AUCextrap: 5830 ng·h/mL
  t1/2: 5.35 h
[7]; Compound W IV 1 mg/kg
  AUCextrap: 419 ng·h/mL
  Cl_obs: 46.7 mL/min/kg
  Cmax/C0: 4800 ng/mL
  Vss_obs: 0.38 L/kg
[7]; Compound W IV 5 mg/kg
  AUCextrap: 1120 ng·h/mL
  Cl_obs: 84.6 mL/min/kg
  Cmax/C0: 9030 ng/mL
  Vss_obs: 5.8 L/kg
[8]; 10 mg/kg BID oral gavage
  Log Reduction vs. Early Control: 0.64 Log
  Median Lung Burden: 4.34 Log cfu/lungs
[8]; 10 mg/kg BID oral gavage, phosphate
  Log Reduction vs. Late Control: 0.02 Log
[8]; 30 mg/kg BID oral gavage
  Log Reduction vs. Early Control: 1.98 Log
  Log Reduction vs. Late Control: 1.36 Log
  Median Lung Burden: 3.00 Log cfu/lungs
[8]; 100 mg/kg BID oral gavage
  Log Reduction vs. Early Control: 2.63 Log
  Median Lung Burden: 2.35 Log cfu/lungs
[8]; 100 mg/kg BID oral gavage, phosphate
  Log Reduction vs. Late Control: 2.02 Log and 2.01 Log
[8]; doses of 10, 30, and 100 mg/kg BID
  reduction of bacterial burdens versus the early control: 0.64-2.63 logs
[9]
  in vivo conversion of prodrug into parent: converted in vivo into Compound 23
[10]; Compound W oral 30 mg/kg, 0.5% MC
  t1/2: 3.1 h
[10]; Compound W oral 100 mg/kg, 0.5% MC
  t1/2: 7.2 h
[10]; Compound W oral 300 mg/kg, 0.5% MC
  t1/2: 11.3 h
[10]; 30 mg/kg, Compound W oral 30 mg/kg, 0.5% MC
  AUC: 58 ng·h/mL
[10]; 100 mg/kg, Compound W oral 100 mg/kg, 0.5% MC
  AUC: 66 ng·h/mL
[10]; 300 mg/kg, Compound W oral 300 mg/kg, 0.5% MC
  AUC: 464 ng·h/mL
[10]; 300 mg/kg, Compound W oral 300 mg/kg, 20% CAPT, 1% HPMC-AS, 1% PVP
  AUC: 4270 ng·h/mL

## CCNC(=O)Nc1nc2cc(-c3cnc(C(C)(C)OP(=O)(O)O)nc3)c(F)c([C@H]3CCCO3)c2[nH]1 [Form C, (R)-2-(5-(2-(3-ethylureido)-6-fluoro-7-(tetrahydrofuran-2-yl)-1H-benzo[d]imidazol-5-yl)pyrimidin-2-yl)propan-2-yl dihydrogen phosphate]
[1]; 17 days, listed as C
  Net % increase in total impurities: 0.18%
Escherichia coli AG100; Escherichia coli AG100 WT
  MIC: >16 µg/mL and >8 µg/mL
Haemophilus influenzae; read-out: MIC
  MIC: 0.25 µg/mL
[2]; [12]
  MIC: 4 µg/mL
S. aureus DNA gyrase
  pKi: 7.57
[4]; Staphylococcus aureus ATCC 29213 GyrB T173I
  MIC: >16 µg/mL
[4]; [14]
  MIC: 1 µg/mL and 2 µg/mL
[4]; Staphylococcus aureus, ATCC29213, Staphylococcus aureus ATCC 29213, read-out: MIC
  MIC: 4 µg/mL
E. coli DNA Topo IV
  pKi: > 8.22
[11]
  MIC: 2 µg/mL

## CCNC(=O)Nc1nc2cc(-c3cnc(C(C)(C)OP(=O)(O)O)nc3)c(F)c([C@H]3CCCO3)c2[nH]1 [Form A, (R)-2-(5-(2-(3-ethylureido)-6-fluoro-7-(tetrahydrofuran-2-yl)-1H-benzo[d]imidazol-5-yl)pyrimidin-2-yl)propan-2-yl dihydrogen phosphate]
[1]; 15 days
  Net % increase in total impurities: 0.07%
Escherichia coli AG100; Escherichia coli AG100 WT
  MIC: >8 µg/mL
Escherichia coli AG100; Escherichia coli AG100 tolC
  MIC: >8 µg/mL
Haemophilus influenzae
  MIC: 0.25 µg/mL
S. aureus DNA Topo IV
  pKi: > 8.40
[2]; ATCC49624, Enterococcus faecium ATCC 49624 with 3% Laked Horse Blood, read-out: MIC
  MIC: 4 µg/mL
S. aureus DNA gyrase
  pKi: 7.59
[3]; vapor sorption, 25° C.
  water content of fully hydrated form (vapor sorption isotherm): about 6 weight %
[4]; [13]
  MIC: 4 µg/mL
[4]; Staphylococcus aureus, ATCC29213, Staphylococcus aureus ATCC 29213 with 50% Mouse Serum, read-out: MIC
  MIC: 1 µg/mL
E. coli DNA Topo IV
  pKi: 7.96
